Assays:
[1] = tested on: MDA-MB-468 (GFP-LC3) cells; assay: GFP-LC3 punctae (autophagosome formation) microscopy assay; type: cell-based, human; settings: for GFP-LC3 punctae per cell: drug concentrations up to 100 μM; for EC50: Homo sapiens, MDA-MB-468, 24 hours of treatment, read-out: potency (EC50±S.E.M.) of autophagosome formation (GFP-LC3 punctae); for concentration at which precipitous cell death occurred: following 24 hours of treatment
Experimental: The human GFP-LC3 expression plasmid, pEGFP-LC3 (a gift from Drs. Grazia Ambrosini and Gary K. Schwartz, MSKCC), was stably transfected into MDA-MB-468 and selected with 0.5 mg/ml G418 sulfate. Stable populations were generated and compared to parental MDA-MB-468 for Sigma1 expression and autophagic and growth inhibitory response to Sigma ligands. GFP-LC3 translocation (punctae formation) was assessed by microscopy in MDA-MB-468 (GFP-LC3) stable cell populations. For microscopy-based experiments, cells were seeded onto Lab-Tek II glass chamber slides (Nalge Nunc International). […] Images of GFP-LC3 punctae were acquired with a Zeiss Axioplan 2 Imaging widefield microscope using Axiovision LE software. Punctae were counted using the spot quantitation program in the Fluoro-Chem software package (Alpha Innotech) and confirmed in parallel by manual counting. Autophagosome formation in MDAMB-468 (GFP-LC3) cells was quantitated as the mean number of GFP-LC3 punctae per GFP positive cell.
Initially, an established immunoblot-based assay to detect microtubule associated protein light chain 3 (LC3) lipidation was used to test for the activation of autophagy. […] Since transient transfections can produce spurious GFP-LC3 aggregates, stable GFP-LC3 transfected populations of MDA-MB-468 (GFP-LC3) were generated. […]

[2] = tested on: T47D and MDA-MB-468 cells; assay: Cell cycle profile (G1, S, G2 phase cells); type: cell-based, human; settings: 24 hours; IPAG 1 μM (T47D) or 10 μM (MDA-MB-468); (+)-SKF-10047 10 μM
Experimental: FIG. 30, comprising FIGS. 30A-30B, illustrates that Sigma1 antagonists mediate cell cycle arrest. […] FIG. 30A is a graph illustrating the percentage of G1, S, and G2 phase cells in T47D cells treated for 24 hours with DMSO (vehicle control), 1 μM IPAG (Sigma1 antagonist), or 10 μM (+)SKF-10047 (Sigma1 agonist). FIG. 30 B is a graph illustrating the percentage of G1, S, and G2 phase cells in MDA-MB-468 cells treated for 24 hours with DMSO (vehicle control), 10 μM IPAG (Sigma1 antagonist), or 10 μM (+)-SKF-10047 (Sigma1 agonist).

[3] = tested on: T-47D breast adenocarcinoma cells; assay: Cell size by flow cytometry (mean FSC-H, G1 phase); type: cell-based, human; settings: 10 μM, 24 hours; control 412±5
Experimental: FIG. 31A is a differential interference contrast (DIC) image of MDA-MB-468 breast adenocarcinoma cells treated for ˜20 hours with DMSO (drug vehicle control), 10 μM IPAG (antagonist) or 10 μM PRE084 (agonist). A twenty-micron bar is shown in each image. Data are presented as mean±SEM. FIG. 31B is a graph illustrating the finding that IPAG diminished the mean cell size (FSC-H) of MDA-MB-468 breast tumor cells in a time-responsive manner. The mean FSC-H of 370±5 at to decreased to 323±4 after 24 hours of IPAG treatment and to 267±2 after 48 hours of treatment. Two-tailed t-tests were performed to determine statistical significance. For IPAG treatment compared to control (DMSO) and Sigma agonists (SKF and PRE084), P=0.0002 at d1 and P=0.00013 at d2. Data were generated from three to five independent determinations for each time-point. Flow cytometry was used to measure mean cell size (mean FSC-H) of T-47D breast adenocarcinoma cells. FIG. 31C is a bar graph illustrating T-47D cells treated for 24 hours with 10 μM indicated Sigma ligand. IPAG and BD 1047 (Sigma1 antagonists) diminished cell size from a mean FSC-H of 412±5 for control (DMSO) cells versus 341±7 and 381±8 for IPAG and BD1047 treated cells, respectively. […] Data represent 5 independent determinations (*P<0.05, ***P<0.001). FIG. 31D is a bar graph illustrating how IPAG (antagonist) decreases cell size in a dose responsive manner. T-47D were treated for 24 h with 1 and 10 μM IPAG, and mean FSC-H was measured. FIG. 31E is a graph illustrating that T47D cell size decreases over time. T-47D cells were treated for a total of 48 hours with 10 μM of the indicated Sigma ligands. […] Neither Sigma1 agonist, (+)-SKF10047 and PRE084, altered cell size. […] Two-tailed t-tests were performed to determine statistical significance. For IPAG treatment compared to control (DMSO) and Sigma1 agonists (SKF and PRE084), P=0.0002 at d1 and P<0.0001 at d2. For FIGS. 31B-31E, the mean FSC-H was determined for each cell cycle population (i.e., G1, S, G2/M), and data is shown for G1 phase cells. S and G2/M phase cells responded similarly (data not shown).

[4] = tested on: MDA-MB-468 breast tumor cells; assay: Akt, S6K and ERK phosphorylation immunoblots; type: cell-based, human; settings: 10 μM, 24 hours
Experimental: FIG. 40, comprising FIGS. 40A-40C, illustrates Sigma1 antagonist modulation of Akt, S6K, and ERK phosphorylation. MDA-MB-468 breast tumor cells were treated for 24 hours with 10 μM IPAG (Sigma1 antagonist) or (+)SKF-10047 (SKF, Sigma1 agonist). Treated cells were harvested and cellular proteins were extracted with a buffer containing 1% Sodium Dodecyl Sulfate (SDS) and deoxycholate (DOC), supplemented with phosphatase and protease inhibitors. FIG. 40A is an image of an immunoblot illustrating Akt phosphorylation. […] Akt phosphorylation at threonine 308 was not altered in any of the samples (not shown). Equivalent loading was confirmed with an anti-GAPDH antibody. FIG. 40B is an image of an immunoblot illustrating phosphorylation. Phosphorylation of mTOR substrate, p70S6K at threonine 389 decreased 3-fold in IPAG, but not SKF treated cells. Total p70S6K was immunoblotted as a loading control. FIG. 40C is an immunoblot illustrating that p44/42 ERK1/2phosphorylation at threonine 202 and tyrosine 204 was abrogated by 24 hour treatment with IPAG. Data shown is representative of two independent experiments.

[5] = tested on: MCF-7, T47D and MDA-MB-468 cells; assay: Cell proliferation by Alamar blue reduction, breast adenocarcinoma cultures; type: cell-based, human; design: anti-proliferative effect: dose or concentration left out as unconfirmed; settings: for anti-proliferative effect: 4 days; for inhibition of cell proliferation: after 4 days of treatment, six drug concentrations
Description: In vitro cell proliferation was quantitated by Alamar blue reduction. The anti-proliferative effects of six drug concentrations of the indicated drugs were quantitated after 4 days of treatment.

[6] = tested on: MDA-MB-468 cells; assay: Cell death by trypan blue exclusion; type: cell-based, human; settings: 3-MA alone (5 mM), 24 hours
Experimental: Trypan blue exclusion and propidium iodide staining were used to quantify general cell death and the presence of apoptotic cell death was confirmed by immunoblot. The percentage of dead cells in a given population was determined by quantifying the number of trypan blue positive (dead) cells and dividing by the total number of trypan blue positive and negative cells.

[7] = tested on: MDA-MB-468 breast adenocarcinoma cells; assay: LC3 lipidation (LC3II) immunoblot; type: cell-based, human; settings: 10 μM, 24 hours
Experimental: Cells were lysed and proteins extracted in a modified RIPA buffer (25 mM Tris-HCl pH 7.6, 150 mM NaCl, 1% NP-40, 1% sodium deoxycholate and 0.1% SDS) supplemented with 10% glycerol (volume/volume), complete protease inhibitor cocktail (Roche), and Halt phosphatase inhibitor cocktail (Pierce). Approximately 10-20 μg of detergent soluble protein were resolved on NOVEX 10-20% polyacrylamide Tris-glycine gels (InVitrogen). Immunoblots were performed in a 20 mM Tris-buffered 137 mM saline solution (pH 7.6) containing 0.1% Tween-20 (polyoxyethylene (20) sorbitan monolaurate) and 5% (weight/volume) blotting grade non-fat dry milk (BioRad). The Lumigen PS-3 enhanced chemiluminescence kit (GE Healthcare) was used to reveal immunoblotted proteins.
Initially, an established immunoblot-based assay to detect microtubule associated protein light chain 3 (LC3) lipidation was used to test for the activation of autophagy. […] Since transient transfections can produce spurious GFP-LC3 aggregates, stable GFP-LC3 transfected populations of MDA-MB-468 (GFP-LC3) were generated. These cells were treated for 24 hours with increasing concentrations of Sigma receptor antagonists and agonists, and were compared to basal and DMSO treated controls (FIGS. 4B & 4C).

[8] = tested on: MCF7 tumor xenograft; assay: MCF7 tumor xenograft, tamoxifen potentiation by rimcazole; type: in vivo, athymic mice; settings: for inhibition of tumor growth: after 11 days of daily i.p. treatment, tamoxifen 1 mg/kg, Rimcazole 10 mg/kg, each alone
Experimental: Preliminary tumor xenograft experiments were performed according to MSKCC Tumor Assessment Core facility protocol. Briefly, β-estradiol treated athymic mice were injected with MCF7 cells, and drug treatment was initiated when mean tumor volume reached approximately 140 mm^3, which occurred 17 days following MCF-7 injection. Daily i.p. drug injections were performed for up to 11 days, and tumor volume was quantified by the formula: tumor volume=L×W^2×π/6. In this pilot experiment, 3-5 mice were tested per group. […] An extended time course, with more mice per group and multiple drug doses, may be performed to determine whether the tumor growth inhibitory effect of combined drug treatment is additive or synergistic.

`C=CCN1CC[C@]2(C)c3cc(O)ccc3C[C@H]1[C@H]2C` (relative stereo) [(+)-SKF10047, [2S-(2α,6α,11R*]-1,2,3,4,5,6-hexahydro-6,11-dimethyl-3-(2-propenyl)-2,6-methano-3-benzazocin-8-ol] was tested, and the “GFP-LC3 punctae per cell” value ([1]; 24 hours) was no more than 5±1 punctae per cell, the cell cycle profile [2] was “did not present significant difference in cell cycle profile” and the “mean FSC-H (relative cell size)” value [3] was “did not alter cell size”. For the same molecule, the “decrease of Akt phosphorylation at serine 473” value [4] was “did not alter Akt phosphorylation” and the anti-proliferative effect [5] was “ineffective”.

In the case of `CC(C)=CCN1CC[C@]2(C)c3cc(O)ccc3C[C@H]1[C@H]2C` (relative stereo) [(+)-pentazocine, (+)-[2S-(2,6,11R*)]-1,2,3,4,5,6-hexahydro-6,1-dimethyl-3-(3-methyl-2-butenyl)-2,6-methano-3-benzazocin-8-ol], the “GFP-LC3 punctae per cell” value ([1]; 24 hours) is reported as no more than 6±1 punctae per cell and the anti-proliferative effect [5] is reported as “ineffective”.

In the case of `CN(C)CCN(C)CCc1ccc(Cl)c(Cl)c1` [BD1047, N′-[2-(3,4-dichlorophenyl)ethyl]-N,N,N′-trimethylethane-1,2-diamine], the “mean FSC-H (relative cell size)” value [3] is reported as 381±8 and the “inhibition of cell proliferation” value [5] is reported as “also inhibited cell proliferation”.

In the case of `CN1CCN(CCc2ccc(Cl)c(Cl)c2)CC1` [BD1063, 1-[2-(3,4-dichlorophenyl)ethyl]-4-methylpiperazine], the “inhibition of cell proliferation” value [5] is reported as “also inhibited cell proliferation”.

`Cn1cnc(N)c2ncnc1-2` [Compound 3-MA, 3-methyladenine] was tested, and the punctae per cell ([1]; 5 mM 3-MA alone, 24 hours) was 5±1 punctae per cell and the “dead cells per well” value [6] was 6±2%.

With `COc1cccc2c1CCCC2CCCN1CCN(C2CCCCC2)CC1` (centres unmarked) [PB28, 1-cyclohexyl-4-[3-(5-methoxy-1,2,3,4-tetra-hydronaphthalen-1-yl)propyl]piperazine] the EC50 [1] was 52 ± 9 µM, the “concentration at which precipitous cell death occurred” value [1] was 100 µM and the “conversion of LC3 to LC3II (autophagosome formation)” value [7] was “converted LC3 to LC3II”.

In the case of `C[C@@H]1CN(CCCn2c3ccccc3c3ccccc32)C[C@H](C)N1` [rimcazole, 9-{3-[(3R,5S)-3,5-dimethylpiperazin-1-yl]propyl}-9H-carbazole], the EC50 [1] is reported as 50 ± 8 µM, the “concentration at which precipitous cell death occurred” value [1] is reported as 100 µM and the “conversion of LC3 to LC3II (autophagosome formation)” value [7] is reported as “converted LC3 to LC3II”. For the same molecule, the “inhibition of tumor growth” value [8] was “approximately 50%”, the tumor growth ([8]; tamoxifen (1 mg/kg) and Rimcazole (10 mg/kg) combined, 11 day time course) was “completely inhibited” and the “inhibition of cell proliferation” value [5] was “inhibited cell proliferation with comparable potencies in all cell lines”.

For `CC/C(=C(\c1ccccc1)c1ccc(OCCN(C)C)cc1)c1ccccc1` [tamoxifen, (Z)-2-[4-(1,2-diphenylbut-1-enyl)phenoxy]-N,N-dimethylethanamine], the “inhibition of tumor growth” value [8] was “approximately 50%” and the “inhibition of cell proliferation” value [5] was “inhibited cell proliferation with similar potencies”.
